Literature values, collected in article PMC10817174, “Integrated drug response prediction models pinpoint repurposed drugs with effectiveness against rhabdomyosarcoma” (PLOS ONE, 2024).

Assays:
GDSC-RD cell line = conditions: Table S2, published drug response ref Iorio et al. (2016); cited from earlier work
GDSC-SJCRH30 cell line = conditions: Table S2, published drug response ref Iorio et al. (2016); cited from earlier work

Compound | Iorio_RD (GDSC-RD cell line) | Iorio_SJCRH30 (GDSC-SJCRH30 cell line)
CC1(C)CC(=O)c2c(C(F)(F)F)nn(-c3ccc(C(N)=O)c(N[C@H]4CC[C@H](O)CC4)c3)c2C1 [SNX-2112] | R | R
CCN(CC)CCCCNc1ncc2cc(-c3cc(OC)cc(OC)c3)c(NC(=O)NC(C)(C)C)nc2n1 [PD-173074] | – | R
NCC(=O)Nc1ccc(-n2nc(C(F)(F)F)cc2-c2ccc3c(ccc4ccccc43)c2)cc1 [OSU-03012] | R | R
O=C(/C=C/c1cccnc1)NCCCCC1CCN(C(=O)c2ccccc2)CC1 [FK866] | R | R
COc1nc(C)cnc1NS(=O)(=O)c1cccnc1-c1ccc(-c2nnco2)cc1 [Zibotentan] | R | R
COc1cc2nccc(Oc3ccc(NC(=O)C4(C(=O)Nc5ccc(F)cc5)CC4)cc3)c2cc1OC [XL-184] | R | R
O=C1NC(=NCc2cccs2)S/C1=C\c1ccc2ncccc2c1 [RO-3306] | – | R
CCOc1cc(N2CCC(O)CC2)ccc1Nc1ncc2c(n1)N(C)c1ccccc1C(=O)N2C [XMD8-92] | – | R
CCT007093 | R | R
NC(=O)Nc1cc(-c2cccc(F)c2)sc1C(=O)N[C@H]1CCCNC1 [AZD7762] | – | S
CN(Cc1cnc2nc(N)nc(N)c2n1)c1ccc(C(=O)N[C@@H](CCC(=O)O)C(=O)O)cc1 [Methotrexate] | – | R
C/C(=C\c1csc(C)n1)[C@@H]1C[C@@H]2O[C@]2(C)CCC[C@H](C)[C@H](O)[C@@H](C)C(=O)C(C)(C)[C@@H](O)CC(=O)O1 [Epothilone-B] | R | R
Cc1ccc(Nc2nccc(N(C)c3ccc4c(C)n(C)nc4c3)n2)cc1S(N)(=O)=O [Pazopanib] | R | R
CC1(C)CNc2cc(NC(=O)c3cccnc3NCc3ccncc3)ccc21 [AMG-706] | – | R
COc1cc(OC)cc(-c2ccc3ncc4ccc(=O)n(-c5ccc(N6CCNCC6)c(C(F)(F)F)c5)c4c3c2)c1 [JW-7-24-1] | R | R
Cn1c(=O)n(-c2ccc(C(C)(C)C#N)cc2)c2c3cc(-c4cnc5ccccc5c4)ccc3ncc21 [NVP-BEZ235] | – | R
c1ccc2c(CCNc3ccc(Nc4ccncc4)cc3)c[nH]c2c1 [JNJ-26854165] | R | R
CC/C(=C(\c1ccccc1)c1ccc(OCCN(C)C)cc1)c1ccccc1 [Tamoxifen] | R | R
COc1ccc(C2=N[C@@H](c3ccc(Cl)cc3)[C@@H](c3ccc(Cl)cc3)N2C(=O)N2CCNC(=O)C2)c(OC(C)C)c1 [Nutlin-3a] | – | R
CS(=O)(=O)c1ccc(C(=O)Nc2ccc(Cl)c(-c3ccccn3)c2)c(Cl)c1 [Vismodegib] | – | R
COc1ccccc1S(=O)(=O)Nc1ccc2c(c1)CN(C)C(=O)N2 [PFI-1] | R | R
O=C(NC1CCNCC1)c1[nH]ncc1NC(=O)c1c(Cl)cccc1Cl [AT-7519] | R | R
O=S(=O)(c1ccccc1)N(CC(F)(F)F)c1ccc(C(O)(C(F)(F)F)C(F)(F)F)cc1 [T0901317] | R | R
Nc1[nH]nc2nnc(-c3c(-c4ccccc4)nn4ccccc34)cc12 [FR-180204] | R | R

Compound | Iorio_RD (GDSC-RD cell line) | Iorio_SJCRH30 (GDSC-SJCRH30 cell line)
O=C(O)c1ccc(-c2c[nH]c3ncc(-c4ccccc4)cc23)cc1C1CCCC1 [GSK-650394] | R | R
NC(=O)Nc1sc(-c2ccc(F)cc2)cc1C(N)=O [TPCA-1] | R | R
CC(C)(C)c1cc(NC(=O)Nc2ccc(-c3cn4c(n3)sc3cc(OCCN5CCOCC5)ccc34)cc2)no1 [AC220] | R | R
Cc1ccc(C(=O)N(CCCN)[C@@H](c2nc3cc(Cl)ccc3c(=O)n2Cc2ccccc2)C(C)C)cc1 [SB-715992] | R | R
Oc1ccc2ccccc2c1SSc1c(O)ccc2ccccc12 [IPA-3] | R | R
C[C@]1(O)C[C@@H](c2nc(-c3ccc4ccc(-c5ccccc5)nc4c3)c3c(N)nccn32)C1 [OSI-906] | S | S
O=C(c1ccc(C(=O)N2CCC(N3CCCC3)CC2)c(Nc2ccccc2)c1)N1CCC(N2CCCC2)CC1 [UNC1215] | R | S
C[C@]1(c2nc3c(C(N)=O)cccc3[nH]2)CCCN1 [ABT-888] | – | R
Cc1cn(-c2cc(NC(=O)c3ccc(C)c(Nc4nccc(-c5cccnc5)n4)c3)cc(C(F)(F)F)c2)cn1 [Nilotinib] | – | R
C=CC(=O)Nc1cc(NC(=O)c2ccc(C)c(NC(=O)c3ccno3)c2)cc(C(F)(F)F)c1 [QL-XI-92] | S | S
COCCn1c2c([n+](Cc3cnccn3)c1C)C(=O)c1ccccc1C2=O [YM155] | R | R
CC(C)CC(=O)Nc1[nH]nc2c1CN(C(=O)C1CCN(C)CC1)C2(C)C [PHA-793887] | R | R
O=C1NC(=O)/C(=C\c2ccc3nccnc3c2)S1 [AS605240] | R | R
COc1cc([C@@H]2c3cc4c(cc3[C@@H](O[C@@H]3O[C@@H]5CO[C@@H](C)O[C@H]5[C@H](O)[C@H]3O)[C@H]3COC(=O)[C@H]23)OCO4)cc(OC)c1O [Etoposide] | R | R
CC[C@]1(O)C[C@@H]2CN(CCc3c([nH]c4ccccc34)[C@@](C(=O)OC)(c3cc4c(cc3OC)N(C)[C@H]3[C@@](O)(C(=O)OC)[C@H](OC(C)=O)[C@]5(CC)C=CCN6CC[C@]43[C@@H]65)C2)C1 [Vinblastine] | – | R
C=CCNC1=C2C[C@@H](C)C[C@H](OC)[C@H](O)[C@@H](C)/C=C(\C)[C@H](OC(N)=O)[C@@H](OC)/C=C\C=C(/C)C(=O)NC(=CC1=O)C2=O [17-AAG] | – | R
COc1cc2c(Nc3ccc(NC(=O)c4ccccc4)cc3)ncnc2cc1OCCCN1CCOCC1 [ZM-447439] | – | R
Cn1cc(/C=C2\C(=O)Nc3cccnc32)c2ccccc21 [GW-441756] | – | S
CC[C@@]1(O)C(=O)OCc2c1cc1n(c2=O)Cc2cc3ccccc3nc2-1 [Camptothecin] | – | R
CC(=O)c1c(C)c2cnc(Nc3ccc(N4CCNCC4)cn3)nc2n(C2CCCC2)c1=O [PD-0332991] | – | R
O=c1cc(N2CCOCC2)oc2c(-c3cccc4c3sc3ccccc34)cccc12 [NU-7441] | – | R
COc1cc(Nc2c(C#N)cnc3cc(OCCCN4CCN(C)CC4)c(OC)cc23)c(Cl)cc1Cl [Bosutinib] | – | R
CC(=O)O[C@@]12CO[C@@H]1C[C@H](O)[C@@]1(C)C(=O)[C@H](O)C3=C(C)[C@@H](OC(=O)[C@H](O)[C@@H](NC(=O)OC(C)(C)C)c4ccccc4)C[C@@](O)([C@@H](OC(=O)c4ccccc4)[C@H]21)C3(C)C [Docetaxel] | – | R
CNC(=O)c1ccc(Nc2cc(Nc3ccccc3S(=O)(=O)C(C)C)c3cc[nH]c3n2)nc1 [HG-5-113-01] | – | R

Compound | Iorio_RD (GDSC-RD cell line) | Iorio_SJCRH30 (GDSC-SJCRH30 cell line)
CC(=O)O[C@@H]1[C@@H](OC(C)=O)[C@@H](O)[C@H](Oc2c(-c3ccc(O)cc3)oc3cc(O)cc(O)c3c2=O)O[C@H]1C [SL-0101-1] | – | R
NC(=O)c1ncn([C@@H]2O[C@H](CO)[C@@H](O)[C@H]2O)c1N [AICAR] | – | R
CNC(=O)c1ccccc1Sc1ccc2c(/C=C/c3ccccn3)n[nH]c2c1 [Axitinib] | – | R
COc1cc2ncnc(Nc3ccc(F)c(Cl)c3)c2cc1OCCCN1CCOCC1 [Gefitinib] | – | R
N.N.[Cl][Pt][Cl] [Cisplatin] | – | R
O=C(NOC[C@H](O)CO)c1ccc(F)c(F)c1Nc1ccc(I)cc1F [PD-0325901] | – | R
NC(=O)c1ccc(N(C(N)=O)c2c(F)cccc2F)nc1-c1ccc(F)cc1F [VX-702] | – | R
NC1(c2ccc(-c3nc4ccn5c(=O)[nH]nc5c4cc3-c3ccccc3)cc2)CCC1 [MK-2206] | – | R
COc1ccc(-c2ccc3c(N4CCOC[C@@H]4C)nc(N4CCOC[C@@H]4C)nc3n2)cc1CO [AZD8055] | – | R
CN(C)C/C=C/C(=O)Nc1ccc(C(=O)Nc2cccc(Nc3nccc(-c4cccnc4)n3)c2)cc1 [ZG-10] | – | R
C[C@]12O[C@H](C[C@]1(O)CO)n1c3ccccc3c3c4c(c5c6ccccc6n2c5c31)CNC4=O [CEP-701] | – | R
O=C(NOCC1CC1)c1ccc(F)c(F)c1Nc1ccc(I)cc1Cl [CI-1040] | – | R
O=C(NCCCNc1nc(Nc2cccc(NC(=O)N3CCCC3)c2)ncc1I)c1cccs1 [BX-795] | – | R
Cn1cc(C2=C(c3ccc(Cl)cc3Cl)C(=O)NC2=O)c2ccccc21 [SB-216763] | – | R
CC1=C(/C=C/C(C)=C/C=C/C(C)=C/C(=O)O)C(C)(C)CCC1 [ATRA] | – | R
CN(NC(=O)CC(=O)NN(C)C(=S)c1ccccc1)C(=S)c1ccccc1 [Elesclomol] | – | R
O=c1cc(-c2cccc3c2Sc2ccccc2S3)oc(N2CCOCC2)c1 [KU-55933] | – | R
CO[C@H]1C[C@@H]2CC[C@@H](C)[C@@](O)(O2)C(=O)C(=O)N2CCCC[C@H]2C(=O)O[C@H]([C@H](C)C[C@@H]2CC[C@@H](OC(=O)C(C)(CO)CO)[C@H](OC)C2)CC(=O)[C@H](C)/C=C(\C)[C@@H](O)[C@@H](OC)C(=O)[C@H](C)C[C@H](C)/C=C/C=C/C=C/1C [Temsirolimus] | – | R
Nc1cccc2c1CN(C1CCC(=O)NC1=O)C2=O (stereo not shown) [Lenalidomide] | – | R
Cc1ccc(-n2nc(C(C)(C)C)cc2NC(=O)Nc2ccc(OCCN3CCOCC3)c3ccccc23)cc1 [BIRB-0796] | – | R
CCOc1nc(NC(=O)Cc2cc(OC)ccc2OC)cc(N)c1C#N [JNK-Inhibitor-VIII] | – | R
Nc1ccn([C@@H]2O[C@H](CO)[C@@H](O)[C@@H]2O)c(=O)n1 [Cytarabine] | – | S
